Measured values: publication PMC8151276, “An Integrated Approach toward NanoBRET Tracers for Analysis of GPCR Ligand Engagement” (Molecules, 2021)

Experiments:
Assay type in all cases: binding
[1] = molecular target: T1, FZD9 (Homo sapiens, UniProt O00144); test: NanoBRET screen HiBiT-FZD9 in HEK293
T1 construct: purchased Promega (in-house HiBiT-GPCR construct library, NanoBRET)
T1 sequence (O00144 23-591): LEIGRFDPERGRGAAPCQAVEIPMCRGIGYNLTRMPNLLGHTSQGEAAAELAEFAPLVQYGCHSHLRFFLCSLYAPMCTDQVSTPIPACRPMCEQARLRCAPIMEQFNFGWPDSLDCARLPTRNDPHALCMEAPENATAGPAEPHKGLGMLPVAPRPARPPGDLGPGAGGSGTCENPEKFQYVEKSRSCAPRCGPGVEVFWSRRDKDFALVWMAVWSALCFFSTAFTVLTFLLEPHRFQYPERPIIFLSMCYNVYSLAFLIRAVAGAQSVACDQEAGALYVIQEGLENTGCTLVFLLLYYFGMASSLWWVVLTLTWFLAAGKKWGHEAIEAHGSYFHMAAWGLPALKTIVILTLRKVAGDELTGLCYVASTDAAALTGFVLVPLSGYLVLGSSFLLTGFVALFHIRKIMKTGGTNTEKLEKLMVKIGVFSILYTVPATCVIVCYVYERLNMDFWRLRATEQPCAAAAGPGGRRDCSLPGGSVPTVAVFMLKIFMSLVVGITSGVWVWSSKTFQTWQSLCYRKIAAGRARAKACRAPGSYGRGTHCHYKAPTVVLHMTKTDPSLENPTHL
Procedure: (§1) Each tracer candidate was screened across the entire library of HiBiT-GPCR constructs using NanoBRET as the detection modality. As depicted in Figure 4A, the specificity of interactions was evaluated through decrease in BRET due to competitive displacement of a bound tracer by excess parental compound. Each tracer was analyzed for binding to each HiBiT-GPCR fusion in the absence and in the presence of competing parental compound. Briefly, HEK293 cells were transfected with HiBiT-GPCR constructs diluted into promoterless DNA to reduce expression and maximize translocation to the cell surface. Each tracer candidate was then screened at concentrations of 1 μM and 0.1 μM across cells expressing these fusions. Cells were treated for 1.5 h with tracer either alone or in the presence of 20 μM competing parental compound (i.e., control). BRET was measured upon addition of purified LgBiT and subsequent complementation with HiBiT genetically fused to a GPCR. The specificity of interactions was assessed through a decrease in BRET signal due to competitive displacement of the bound tracer. To further gauge the robustness of these interactions, the fold response over the control (i.e., BRETtracer/BRETcontrol) was calculated. We chose a 1.5-fold response, which translates to ≥7-fold signal over noise as the minimal threshold required to score an interaction as positive. […]. Below we highlight the screening results obtained for our exemplary fluorescent tracers based on Clozapine, Amitriptyline and AZD1283.
(§2) HiBiT-GPCR DNA constructs were diluted in 10 mM Tris pH 8 to a final concentration of 0.01 μg/μL, arrayed in 96-well plates and stored at −20 °C. For transfection, HEK293 cells were suspended in Opti-MEM (without phenol red) supplemented with 2% fetal bovine serum (Seradigm) and 100 units/mL penicillin–streptomycin (Gibco) at a final concentration of 220,000 cells/mL and dispensed into white 96-well plates at 90 μL/well. Subsequent transfections and screens were carried using an Agilent Bravo Automated Liquid Handling Platform. First, the 96-well HiBiT DNA arrays were diluted 25-fold in Opti-MEM (without serum or phenol red) to a final concentration of 0.0004 μg/μL and 20 μL of the diluted DNAs were transferred into new 96-well plates. Next, promoterless carrier DNA (1 μg/μL) was diluted 25-fold (0.04 μg/μL) and then dispensed into the diluted arrays at 20 μL/well. Following brief mixing, Viafect transfection reagent (Promega) diluted 16-fold into Opti-MEM was dispensed into the plates at 40 μL/well. After mixing by pipetting, plates were incubated for 10 min on the pipetting station deck. The DNA-transfection reagent complexes were then added to plates containing cells. To facilitate the screen, 10 μL of DNA-transfection reagent complexes were added in duplicates to the top 4 and bottom 4 rows, resulting in two identical 48-well arrays per plate. Plates with transfected cells were incubated for 18–20 h at 37 °C/5% CO2. A screen of each tracer across the entire library using two different concentrations requires duplicate plates of transfected cells. Depending on the number of tracers being screened, transfections can be scaled up using the same ratios. The next day, for each tracer, four 20× screening solutions in tracer dilution buffer (Promega) were prepared: two duplicates at final concentration of 20 μM and two duplicates at a final concentration of 2 μM. A competing unmodified compound was added to one of each duplicate at a final concentration of 400 μM. The four resulting solutions were diluted 4-fold in Opti-MEM without serum or phenol red to generate 5× solutions (5 µM and 0.5 µM tracer +/− 100 μM competing compound). To screen the library, a BioTek MultiFlo FX liquid dispenser was used to dispense 22.5 µL of tracer solution to the top 4 rows and 22.5 µL tracer + competing compound solution to the 4 bottom rows. Plates were briefly mixed on an orbital shaker and incubated for 1.5 h at room temperature. […]

[2] = molecular target: T2, PTGFR (Homo sapiens, UniProt P43088); test: NanoBRET screen HiBiT-PTGFR in HEK293
T2 construct: purchased Promega (in-house HiBiT-GPCR construct library, NanoBRET)
Procedure: as §1, §2

[3] = molecular target: T3, NMUR1 (Homo sapiens, UniProt Q9HB89); test: NanoBRET screen HiBiT-NMUR1 in HEK293
T3 construct: purchased Promega (in-house HiBiT-GPCR construct library, NanoBRET)
T3 sequence (Q9HB89 1-426): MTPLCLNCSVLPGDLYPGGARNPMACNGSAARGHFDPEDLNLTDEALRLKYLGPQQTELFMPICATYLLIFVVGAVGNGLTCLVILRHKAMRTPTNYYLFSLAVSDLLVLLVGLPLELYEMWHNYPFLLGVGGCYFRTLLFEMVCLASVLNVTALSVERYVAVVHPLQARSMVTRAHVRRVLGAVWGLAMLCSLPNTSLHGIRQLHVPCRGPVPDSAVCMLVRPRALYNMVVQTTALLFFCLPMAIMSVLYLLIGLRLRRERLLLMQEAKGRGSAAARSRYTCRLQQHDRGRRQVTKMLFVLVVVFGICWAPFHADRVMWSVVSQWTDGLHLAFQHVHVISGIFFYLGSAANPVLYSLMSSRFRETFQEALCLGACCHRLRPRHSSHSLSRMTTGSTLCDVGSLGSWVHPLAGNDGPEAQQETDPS
Procedure: as §1, §2

[4] = tracer at 0.1μM, listed as amitriptyline-b-2-NB590
[5] = tracer at 1μM, listed as amitriptyline-b-2-NB590

T2 sequence (P43088 whole entry): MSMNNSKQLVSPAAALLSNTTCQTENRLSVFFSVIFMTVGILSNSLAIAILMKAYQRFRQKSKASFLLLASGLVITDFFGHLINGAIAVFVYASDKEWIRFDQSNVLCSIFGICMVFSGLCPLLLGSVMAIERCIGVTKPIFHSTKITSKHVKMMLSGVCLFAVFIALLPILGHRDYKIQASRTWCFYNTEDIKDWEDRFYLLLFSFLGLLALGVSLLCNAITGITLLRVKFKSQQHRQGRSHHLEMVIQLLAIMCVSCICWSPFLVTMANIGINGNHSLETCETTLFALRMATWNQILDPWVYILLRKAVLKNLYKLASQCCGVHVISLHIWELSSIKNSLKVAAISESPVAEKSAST

SMILES	NanoBRET Fold Response ([1]; FZD9, tracer 0.1μM)	NanoBRET Fold Response ([1]; FZD9, tracer 1μM)	NanoBRET Fold Response ([2]; PTGFR, tracer 0.1μM)	NanoBRET Fold Response ([2]; PTGFR, tracer 1μM)	NanoBRET Fold Response ([3]; NMUR1, tracer 0.1μM)	NanoBRET Fold Response ([3]; NMUR1, tracer 1μM)	also measured
COc1ccccc1N1CCN(CCCCN2C(=O)c3ccc(CNC(=O)CCOCCOCCOCCOCCNC(=O)CCc4ccc5n4[B-](F)(F)[N+]4=C(c6ccc[nH]6)C=CC4=C5)cc3C2=O)CC1 [NAN-190-2-NB590]	0.96	1.06	1.00	1.00	0.99	0.98	
CC(C)N(CC[C@H](c1ccccc1)c1cc(CCNC(=O)c2ccc(CNC(=O)CCc3ccc4n3[B-](F)(F)[N+]3=C(c5ccc[nH]5)C=CC3=C4)cc2)ccc1O)C(C)C [Tolterodine-BZ-NB590]	0.95	1.04	0.99	1.01	0.78	1.02	
O=C(CCc1ccc2n1[B-](F)(F)[N+]1=C(c3ccc[nH]3)C=CC1=C2)NCCOCCOCCNC(=O)OCCOCCN1CCN(C2=Nc3ccccc3Sc3ccccc32)CC1 [Quetiapine-a-2-NB590]	0.84	0.78	1.00	1.06	1.01	0.81	
CN1CCN(C2=Nc3cc(Cl)ccc3Nc3ccc(CNC(=O)CCOCCOCCOCCOCCNC(=O)CCc4ccc5n4[B-](F)(F)[N+]4=C(c6ccc[nH]6)C=CC4=C5)cc32)CC1 [Clozapine-b-2-NB590]							NanoBRET Fold Response ([1]; FZD9, 0.1μM tracer): 1.02; NanoBRET Fold Response ([1]; FZD9, 1μM tracer): 1.05; NanoBRET Fold Response ([2]; PTGFR, 0.1μM tracer): 1.02; NanoBRET Fold Response ([2]; PTGFR, 1μM tracer): 1.07; NanoBRET Fold Response ([3]; NMUR1, 0.1μM tracer): 0.98; NanoBRET Fold Response ([3]; NMUR1, 1μM tracer): 0.94
CC(C)N(CC[C@H](c1ccccc1)c1cc(CCNC(=O)CCOCCOCCOCCOCCNC(=O)CCc2ccc3n2[B-](F)(F)[N+]2=C(c4ccc[nH]4)C=CC2=C3)ccc1O)C(C)C [Tolterodine-2-NB590]	0.96	0.85	0.84	0.94	0.94	1.12	
Cc1cc2c(s1)Nc1ccccc1N=C2N1CCN(CCCNC(=O)CCOCCOCCOCCOCCNC(=O)CCc2ccc3n2[B-](F)(F)[N+]2=C(c4ccc[nH]4)C=CC2=C3)CC1 [Olanzapine-a-2-NB590]	0.95	0.95	1.03	1.07	0.98	1.00	
N#CN=C(NCCCOc1cccc(CN2CCCCC2)c1)NCCNC(=O)CCOCCOCCOCCOCCNC(=O)CCc1ccc2n1[B-](F)(F)[N+]1=C(c3ccc[nH]3)C=CC1=C2 [Aminopotentidine-2-NB590]	1.08	1.01	0.99	0.93	1.05	0.98	
Cc1nc2n(c(=O)c1CCN1CCC(c3noc4cc(F)ccc34)CC1)CCCC2OC(=O)NCCOCCOCCOCCOCCNC(=O)CCc1ccc2n1[B-](F)(F)[N+]1=C(c3ccc[nH]3)C=CC1=C2 (stereo not drawn) [Risperidone-2-NB590]	1.00	0.99	1.00	1.02	1.04	0.97	
CN(C)CCC=C1c2ccccc2CCc2ccc(C(=O)NCCNC(=O)CCOCCOCCOCCOCCNC(=O)CCc3ccc4n3[B-](F)(F)[N+]3=C(c5ccc[nH]5)C=CC3=C4)cc21 [Amitriptyline-b-2-NB590]							NanoBRET Fold Response [1, 4]: 1.04; NanoBRET Fold Response [1, 5]: 1.11; NanoBRET Fold Response ([2]; tracer at 0.1μM): 1.01; NanoBRET Fold Response ([2]; tracer at 1μM): 1.00; NanoBRET Fold Response [3, 4]: 1.14; NanoBRET Fold Response [3, 5]: 1.10
